{"source": "ChEMBL document CHEMBL3351419", "about": "“Orally bioavailable 6-chloro-7-methoxy-4(1H)-quinolones efficacious against multiple stages of Plasmodium” (J Med Chem, 2014)", "key": {"Plasmodium falciparum [1]": {"system": "Plasmodium falciparum", "test": "Antimalarial activity against multi-drug-resistant Plasmodium falciparum W2 infected in human type A+ erythrocytes assessed as growth inhibition after 72 hrs by SYBR Green I assay", "assay_type": "functional, organism-based", "details": "W2, 72 h"}, "[2]": {"test": "Cytotoxicity index, ratio of EC50 for mouse J774 cells to EC50 for multi-drug-resistant Plasmodium falciparum TM90-C2B infected in human type A+ erythrocytes", "assay_type": "toxicity, cell-based", "details": "read-out: Ratio EC50"}, "J774": {"system": "J774", "test": "Cytotoxicity against mouse J774 cells after 72 hrs by CellTiter 96 assay", "assay_type": "cell-based", "details": "J774, 72 h"}, "Plasmodium falciparum [3]": {"system": "Plasmodium falciparum", "test": "Antimalarial activity against multi-drug-resistant Plasmodium falciparum TM90-C2B infected in human type A+ erythrocytes assessed as growth inhibition after 72 hrs by SYBR Green I assay", "assay_type": "functional, organism-based"}, "[4]": {"test": "Resistance index, ratio of EC50 for multi-drug-resistant Plasmodium falciparum TM90-C2B infected in human type A+ erythrocytes to EC50 for multi-drug-resistant Plasmodium falciparum W2 infected in human type A+ erythrocytes", "assay_type": "functional"}}, "data": [{"smiles": "COc1cc2[nH]c(C)c(-c3ccc(C)cc3)c(=O)c2cc1Cl", "values": [{"measurement": "EC50", "setting": "Plasmodium falciparum [1]", "result": 0.0245, "unit": "µM"}, {"measurement": "selectivity ratio", "setting": "[2]", "result": "> 4350"}, {"measurement": "EC50", "setting": "J774", "result": "> 31.9", "unit": "µM"}, {"measurement": "EC50", "setting": "Plasmodium falciparum [3]", "result": 0.00733, "unit": "µM"}, {"measurement": "Ratio EC50", "setting": "[4]", "result": 0.3}]}, {"smiles": "COc1cc2[nH]c(C)c(-c3ccc(C)cc3C)c(=O)c2cc1Cl", "values": [{"measurement": "EC50", "setting": "Plasmodium falciparum [1]", "result": 0.00915, "unit": "µM"}, {"measurement": "selectivity ratio", "setting": "[2]", "result": 1180}, {"measurement": "EC50", "setting": "J774", "result": 3.74, "unit": "µM"}, {"measurement": "EC50", "setting": "Plasmodium falciparum [3]", "result": 0.00317, "unit": "µM"}, {"measurement": "Ratio EC50", "setting": "[4]", "result": 0.35}]}, {"smiles": "COc1cc2[nH]c(C)c(-c3c(C)cc(C)cc3C)c(=O)c2cc1Cl", "values": [{"measurement": "EC50", "setting": "Plasmodium falciparum [1]", "result": 0.046, "unit": "µM"}, {"measurement": "selectivity ratio", "setting": "[2]", "result": 64.6}, {"measurement": "EC50", "setting": "J774", "result": 2.99, "unit": "µM"}, {"measurement": "EC50", "setting": "Plasmodium falciparum [3]", "result": 0.0463, "unit": "µM"}, {"measurement": "Ratio EC50", "setting": "[4]", "result": 1.01}]}, {"smiles": "CCc1ccccc1-c1c(C)[nH]c2cc(OC)c(Cl)cc2c1=O", "values": [{"measurement": "EC50", "setting": "Plasmodium falciparum [1]", "result": 0.0617, "unit": "µM"}, {"measurement": "selectivity ratio", "setting": "[2]", "result": 102}, {"measurement": "EC50", "setting": "J774", "result": 16.2, "unit": "µM"}, {"measurement": "EC50", "setting": "Plasmodium falciparum [3]", "result": 0.16, "unit": "µM"}, {"measurement": "Ratio EC50", "setting": "[4]", "result": 2.59}]}, {"smiles": "COc1cc2[nH]c(C)c(-c3ccc(C(C)C)cc3)c(=O)c2cc1Cl", "values": [{"measurement": "EC50", "setting": "Plasmodium falciparum [1]", "result": 0.00665, "unit": "µM"}, {"measurement": "selectivity ratio", "setting": "[2]", "result": "> 11000"}, {"measurement": "EC50", "setting": "J774", "result": "> 29.3", "unit": "µM"}, {"measurement": "EC50", "setting": "Plasmodium falciparum [3]", "result": 0.00267, "unit": "µM"}, {"measurement": "Ratio EC50", "setting": "[4]", "result": 0.4}]}, {"smiles": "COc1cc2[nH]c(C)c(-c3ccc(C(C)(C)C)cc3)c(=O)c2cc1Cl", "values": [{"measurement": "EC50", "setting": "Plasmodium falciparum [1]", "result": 0.0668, "unit": "µM"}, {"measurement": "EC50", "setting": "J774", "result": "> 28.1", "unit": "µM"}, {"measurement": "EC50", "setting": "Plasmodium falciparum [3]", "result": 0.116, "unit": "µM"}]}, {"smiles": "COc1cc2[nH]c(C)c(-c3ccccn3)c(=O)c2cc1Cl", "values": [{"measurement": "EC50", "setting": "Plasmodium falciparum [1]", "result": 0.928, "unit": "µM"}, {"measurement": "selectivity ratio", "setting": "[2]", "result": "> 156"}, {"measurement": "EC50", "setting": "J774", "result": "> 33.3", "unit": "µM"}, {"measurement": "EC50", "setting": "Plasmodium falciparum [3]", "result": 0.214, "unit": "µM"}, {"measurement": "Ratio EC50", "setting": "[4]", "result": 0.23}]}, {"smiles": "COc1cc2[nH]c(C)c(-c3cncnc3)c(=O)c2cc1Cl", "values": [{"measurement": "EC50", "setting": "Plasmodium falciparum [1]", "result": 2.99, "unit": "µM"}, {"measurement": "selectivity ratio", "setting": "[2]", "result": "> 24.4"}, {"measurement": "EC50", "setting": "J774", "result": "> 33.1", "unit": "µM"}, {"measurement": "EC50", "setting": "Plasmodium falciparum [3]", "result": 1.36, "unit": "µM"}, {"measurement": "Ratio EC50", "setting": "[4]", "result": 0.45}]}, {"smiles": "COc1cc2[nH]c(C)c(-c3ccoc3)c(=O)c2cc1Cl", "values": [{"measurement": "EC50", "setting": "Plasmodium falciparum [1]", "result": 0.0133, "unit": "µM"}, {"measurement": "selectivity ratio", "setting": "[2]", "result": "> 18600"}, {"measurement": "EC50", "setting": "J774", "result": "> 34.5", "unit": "µM"}, {"measurement": "EC50", "setting": "Plasmodium falciparum [3]", "result": 0.00185, "unit": "µM"}, {"measurement": "Ratio EC50", "setting": "[4]", "result": 0.14}]}, {"smiles": "COc1cc2[nH]c(C)c(-c3c(C)noc3C)c(=O)c2cc1Cl", "values": [{"measurement": "EC50", "setting": "Plasmodium falciparum [1]", "result": 1.06, "unit": "µM"}, {"measurement": "selectivity ratio", "setting": "[2]", "result": "> 49.9"}, {"measurement": "EC50", "setting": "J774", "result": "> 31.4", "unit": "µM"}, {"measurement": "EC50", "setting": "Plasmodium falciparum [3]", "result": 0.629, "unit": "µM"}, {"measurement": "Ratio EC50", "setting": "[4]", "result": 0.59}]}, {"smiles": "COc1cc2[nH]c(C)c(-c3ccc4nonc4c3)c(=O)c2cc1Cl", "values": [{"measurement": "EC50", "setting": "Plasmodium falciparum [1]", "result": 1.97, "unit": "µM"}, {"measurement": "selectivity ratio", "setting": "[2]", "result": "> 363"}, {"measurement": "EC50", "setting": "J774", "result": "> 29.3", "unit": "µM"}, {"measurement": "EC50", "setting": "Plasmodium falciparum [3]", "result": 0.0806, "unit": "µM"}, {"measurement": "Ratio EC50", "setting": "[4]", "result": 0.04}]}, {"smiles": "COc1cc2[nH]c(C)c(-c3cc4ccccc4o3)c(=O)c2cc1Cl", "values": [{"measurement": "EC50", "setting": "Plasmodium falciparum [1]", "result": 0.133, "unit": "µM"}, {"measurement": "selectivity ratio", "setting": "[2]", "result": "> 214"}, {"measurement": "EC50", "setting": "J774", "result": "> 29.4", "unit": "µM"}, {"measurement": "EC50", "setting": "Plasmodium falciparum [3]", "result": 0.138, "unit": "µM"}, {"measurement": "Ratio EC50", "setting": "[4]", "result": 1.04}]}, {"smiles": "COc1cc2[nH]c(C)c(-c3cc4ccccc4s3)c(=O)c2cc1Cl", "values": [{"measurement": "EC50", "setting": "Plasmodium falciparum [1]", "result": 0.0718, "unit": "µM"}, {"measurement": "selectivity ratio", "setting": "[2]", "result": "> 1130"}, {"measurement": "EC50", "setting": "J774", "result": "> 28.1", "unit": "µM"}, {"measurement": "EC50", "setting": "Plasmodium falciparum [3]", "result": 0.0248, "unit": "µM"}, {"measurement": "Ratio EC50", "setting": "[4]", "result": 0.35}]}, {"smiles": "COc1cc2[nH]c(C)c(-c3ccc4c(c3)OCCO4)c(=O)c2cc1Cl", "values": [{"measurement": "EC50", "setting": "Plasmodium falciparum [1]", "result": 0.173, "unit": "µM"}, {"measurement": "selectivity ratio", "setting": "[2]", "result": "> 304"}, {"measurement": "EC50", "setting": "J774", "result": "> 27.9", "unit": "µM"}, {"measurement": "EC50", "setting": "Plasmodium falciparum [3]", "result": 0.0919, "unit": "µM"}, {"measurement": "Ratio EC50", "setting": "[4]", "result": 0.53}]}, {"smiles": "COc1cc2[nH]c(C)c(-c3cccc4c3oc3ccccc34)c(=O)c2cc1Cl", "values": [{"measurement": "EC50", "setting": "Plasmodium falciparum [1]", "result": 0.049, "unit": "µM"}, {"measurement": "selectivity ratio", "setting": "[2]", "result": "> 765"}, {"measurement": "EC50", "setting": "J774", "result": "> 25.7", "unit": "µM"}, {"measurement": "EC50", "setting": "Plasmodium falciparum [3]", "result": 0.0336, "unit": "µM"}, {"measurement": "Ratio EC50", "setting": "[4]", "result": 0.68}]}, {"smiles": "COc1cc2[nH]c(C)c(-c3ccc(C=O)cc3)c(=O)c2cc1Cl", "values": [{"measurement": "EC50", "setting": "Plasmodium falciparum [1]", "result": 5.52, "unit": "µM"}, {"measurement": "EC50", "setting": "J774", "result": "> 30.5", "unit": "µM"}, {"measurement": "EC50", "setting": "Plasmodium falciparum [3]", "result": "> 3.81", "unit": "µM"}, {"measurement": "Ratio EC50", "setting": "[4]", "result": 0.7}]}, {"smiles": "COc1cc2[nH]c(C)c(-c3ccc(C(C)=O)cc3)c(=O)c2cc1Cl", "values": [{"measurement": "EC50", "setting": "Plasmodium falciparum [1]", "result": 0.777, "unit": "µM"}, {"measurement": "selectivity ratio", "setting": "[2]", "result": "> 605"}, {"measurement": "EC50", "setting": "J774", "result": "> 29.3", "unit": "µM"}, {"measurement": "EC50", "setting": "Plasmodium falciparum [3]", "result": 0.0484, "unit": "µM"}, {"measurement": "Ratio EC50", "setting": "[4]", "result": 0.06}]}, {"smiles": "COc1cc2[nH]c(C)c(-c3ccc(C(=O)O)cc3)c(=O)c2cc1Cl", "values": [{"measurement": "EC50", "setting": "Plasmodium falciparum [1]", "result": 0.517, "unit": "µM"}, {"measurement": "selectivity ratio", "setting": "[2]", "result": "> 398"}, {"measurement": "EC50", "setting": "J774", "result": "> 29.1", "unit": "µM"}, {"measurement": "EC50", "setting": "Plasmodium falciparum [3]", "result": 0.0731, "unit": "µM"}, {"measurement": "Ratio EC50", "setting": "[4]", "result": 0.14}]}]}
